Data taken from patent US12415810B2, “2'-isopropyl-spiro (3,3'-pyrrolidine oxindole) liver X receptor regulator, preparation method therefor, and use thereof” (SHENZHEN CELL INSPIRE PHARMACEUTICAL DEVELOPMENT CO., LTD., priority 2019, dated 2025).
Like-named read-outs stand apart in the source and are kept apart here.

Experiments:
[1] = system: SREBP-1c, ACC, FAS and SCD-1; assay: mRNA content of LXR downstream genes by qPCR in 3T3-L1 cells; assay type: cell-based, mouse; settings: day 6 of differentiation
Experimental: (§1) HepG2 cells were seeded in a 6-well plate with a cell density of 8×10^5 cells/well and incubated for 24 hours. The compounds to be tested were added and acted for 24 hours, and then the cells were harvested. The 3T3-L1 cells were harvested on day 6 of differentiation. The cells were washed twice with PBS, total RNA was extracted with RNAiso plus reagent, 1 μg of total RNA was reverse transcribed into cDNA using ReverTra Ace qPCR RT Master Mix, and PCR amplification was performed using SYBR Green Realtime PCR Master Mix.

[2] = system: SREBP-1c, ACC, FAS and SCD-1; assay: mRNA content of LXR downstream genes by qPCR in HepG2 cells; assay type: cell-based, human; settings: 24 hours
Experimental: as §1

[3] = system: 3T3-L1 cells; assay: cells; settings: Mus musculus, 3T3-L1, 144 h, read-out: IC50 for lowering the triglyceride level in 3T3-L1 cells
Experimental: (1) Cell culture: human liver cancer cells (HepG2 cells) and mouse pre-adipocytes (3T3L1 cells) were cultured in DMEM (high glucose) medium containing 10% fetal bovine serum and 1% penicillin-streptomycin under conditions of 37° C. and 5% CO2.
(3) The steps of differentiation preadipocytes 3T3-L1 were as follows:
Cells were seeded in a 48-well plate, cultured in complete medium until the cells were completely in contact (day 0), and the medium was changed to a differentiation medium I (complete medium supplemented with 2 μg/mL of insulin, 100 ng/mL of dexamethasone, 0.5 mM of 3-isobutyl-1-methylxanthine, and 10 ng/mL of biotin) to culture for 3 days. The blank control group was still continued being cultured with the complete medium. On day 3, the medium was changed to a differentiation medium II (complete medium supplemented with 2 μg/mL of insulin) and culturing was continued for 3 days. On day 6, the cells were harvested for subsequent analysis.
(4) Triglyceride test: the treated cells were harvested, washed twice with icy PBS (0.2 M NaCl, 10 mM Na2HPO4, 3 mM KCl, 2 mM KH2PO4, pH 7.4), breaking the cells with ultrasonic waves, and detecting absorbance at 510 nm using the triglyceride detection kit (Nanjing Jiancheng Bioengineering Institute).

[4] = system: HepG2 cells; assay: Triglyceride test in HepG2 cells induced by high glucose; assay type: cell-based, human; settings: concentration of 10 μM, 24 hours
Experimental: (2) HepG2 cells were seeded in a 12-well plate, cultured with DMEM (low sugar) medium and starved for 12 hours. When the cells grow to a density of 70%, the medium was changed to DMEM (high sugar) medium and the compound was added to act for 24 hours.

[5] = system: Triton WR-1339-induced hyperlipidemia mice; assay: Lipid-lowering activity in Triton WR-1339-induced hyperlipidemia mice; assay type: in vivo, C57BL/6J mice; settings: 100 mg/kg intragastric for 8 days
Experimental: 6-week-old SPF female C57BL/6J mice were purchased from the Experimental Animal Center of Sun Yat-sen University. The mice were randomly divided into 4 groups each including 6 mice, i.e., a normal control group, model a group, a fenofibrate group (100 mg/kg), and a B1 group (100 mg/kg), and intragastric administration was performed for 8 days. 24 hours before the last administration, the normal control group was intramuscularly injected with saline, and the remaining groups were injected with Triton WR-1339 (1500 mg/kg). One hour after the last administration, the eyeballs were removed to collect blood, the mice were executed by cervical dislocation, and the livers were collected. The plasma was allowed to stand for 1 hour, and the supernatant was collected by centrifugation at 4° C. and 3000 rpm. 100 mg of liver was weighed, added with methanol in 3 times the volume of the weighed liver, and homogenized thoroughly. Chloroform was then added in 6 times the volume and vortex oscillated. After centrifuging at 3000 rpm for 10 minutes, the lower chloroform layer was collected, and evaporated naturally overnight in a fume hood. 150 μL of 1% Triton ethanol was added and heated at 65° C. to be fully dissolved. Finally, triglycerides (TG), total cholesterol (TC), low-density lipoprotein cholesterol (LDL-C), and high-density lipoprotein cholesterol (HDL-C) in serum and liver samples were detected.

[6] = system: liver X receptors; assay: Liver X receptor activity test, (subtype not named); assay type: cell-based, human; settings: for inverse activation of liver X receptors (in words): summary of Table 1; for activation of liver X receptors (in words): summary of Table 2
Experimental: (§2) (1) Cell culture: human embryonic kidney cells (HEK293T cells) were cultured in DMEM (high glucose) medium containing 10% fetal bovine serum and 1% penicillin-streptomycin under conditions of 37° C. and 5% CO2.
(§3) (2) Transfection: HEK293T cells were seeded in a 96-well plate with a cell density of 2×10^4 cells/well. After 24 hours, the cells were transfected according to instructions of Lipofectamine™ 3000 reagent. The specific steps of transfection were as follows: • (1) adding 15 μL of L3000 reagent to 500 μL of DMEM (high sugar) medium, and vortex oscillating for 2 seconds; • (2) mixing 6.5 μg of pGL3/(DR-4)-c-fos-FF-luc plasmid, 0.13 μg of pCMV/Renilla-luc plasmid, 1.3 μg of pSG5/hLXRα (or pSG5/hLXRβ plasmid), 1.3 μg of pSG5/hRXRα plasmid, and 19 μL of P3000 reagent in 500 μL of DMEM (high sugar) medium; • (3) adding the plasmid mixture to a liposome mixture and standing by at room temperature for 20 minutes; and • (4) adding 10 μL of liposome-DNA solution to each well of the 96-well plate, and gently shaking the 96-well plate to mix well.
(§4) (3) Drug intervention: after 5 hours of transfection, the compounds to be tested were added, and the plate was placed in an incubator to continue culturing for 20 hours.
(§5) (4) Detection: dual-luciferase reporter gene system was used for detection. The specific steps of detection were as follows: • (1) aspirating the original medium in the 96-well plate, adding cell lysate to the 96-well plate at 20 μL/well, and quickly shaking the plate at room temperature for 20 minutes; • (2) adding samples to a 384-well plate at 20 μL/well; • (3) adding firefly luciferase substrate to each well at 10 μL/well, and measuring chemiluminescence after 7 seconds; and • (4) adding Renilla luciferase substrate to the same sample well at 100 μL/well, and measuring chemiluminescence after 7 seconds.
(§6) Result processing: the results were analyzed using Renilla luciferase activity to correct the firefly luciferase activity.

[7] = target: T1, LXRα (Homo sapiens, UniProt Q13133); assay: Liver X receptor activity test, dual-luciferase reporter gene in HEK293T cells (pSG5/hLXRα + hRXRα); assay type: cell-based; settings: for EC50 / LXRα % Agonist effect: agonist activity
T1 construct: expressed in transfected cells; host or cells: HEK293T
T1 sequence (Q13133 1-447): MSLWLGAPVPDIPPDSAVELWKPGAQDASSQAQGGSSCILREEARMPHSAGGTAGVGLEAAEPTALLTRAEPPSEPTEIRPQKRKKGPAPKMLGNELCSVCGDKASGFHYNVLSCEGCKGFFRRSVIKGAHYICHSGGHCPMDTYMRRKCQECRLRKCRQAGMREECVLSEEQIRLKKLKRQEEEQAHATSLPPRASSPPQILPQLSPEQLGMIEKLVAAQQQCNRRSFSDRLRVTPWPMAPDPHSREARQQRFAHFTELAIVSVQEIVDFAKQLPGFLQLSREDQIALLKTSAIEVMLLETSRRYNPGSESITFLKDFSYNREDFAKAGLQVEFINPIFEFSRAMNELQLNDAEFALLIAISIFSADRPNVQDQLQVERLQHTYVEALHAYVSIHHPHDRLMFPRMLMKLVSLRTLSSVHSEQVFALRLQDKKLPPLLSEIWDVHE
T1 sequence (P19793 1-462 partner): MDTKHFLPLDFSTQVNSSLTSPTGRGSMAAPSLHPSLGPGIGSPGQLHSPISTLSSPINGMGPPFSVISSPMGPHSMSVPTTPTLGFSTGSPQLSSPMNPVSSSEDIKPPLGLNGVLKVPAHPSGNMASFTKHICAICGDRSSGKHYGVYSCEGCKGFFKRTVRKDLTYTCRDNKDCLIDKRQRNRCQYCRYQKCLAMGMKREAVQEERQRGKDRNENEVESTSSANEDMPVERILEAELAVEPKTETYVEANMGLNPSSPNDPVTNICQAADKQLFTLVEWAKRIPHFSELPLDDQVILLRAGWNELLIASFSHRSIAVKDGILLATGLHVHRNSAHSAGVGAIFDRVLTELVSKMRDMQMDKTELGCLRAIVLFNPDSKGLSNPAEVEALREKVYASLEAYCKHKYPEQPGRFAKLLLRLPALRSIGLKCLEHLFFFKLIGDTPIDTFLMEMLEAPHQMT
Experimental: as §2, §3, §4, §5, §6

[8] = target: T2, LXRβ (Homo sapiens, UniProt P55055); assay: Liver X receptor activity test, dual-luciferase reporter gene in HEK293T cells (pSG5/hLXRβ + hRXRα); assay type: cell-based
T2 construct: expressed in transfected cells; host or cells: HEK293T
T2 sequence (P55055 1-460): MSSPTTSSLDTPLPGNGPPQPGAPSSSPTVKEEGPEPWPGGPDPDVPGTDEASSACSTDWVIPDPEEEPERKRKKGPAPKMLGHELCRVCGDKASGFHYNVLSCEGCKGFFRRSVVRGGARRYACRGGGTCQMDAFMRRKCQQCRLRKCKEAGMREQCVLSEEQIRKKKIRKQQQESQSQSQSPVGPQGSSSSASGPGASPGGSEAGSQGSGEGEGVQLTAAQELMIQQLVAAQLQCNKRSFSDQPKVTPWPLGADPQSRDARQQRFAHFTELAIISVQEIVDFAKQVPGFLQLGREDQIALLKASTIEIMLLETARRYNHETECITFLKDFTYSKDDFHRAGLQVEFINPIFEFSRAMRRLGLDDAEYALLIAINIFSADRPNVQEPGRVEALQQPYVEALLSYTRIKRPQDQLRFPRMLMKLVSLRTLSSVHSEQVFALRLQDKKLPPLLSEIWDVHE
T2 sequence (P19793 1-462 partner): T1 sequence (P19793 1-462 partner)
Experimental: as §2, §3, §4, §5, §6

[9] = agonist activity, HEK293T reporter gene
[10] = inverse agonist activity, HEK293T reporter gene

## CC(C)[C@H]1N(C(=O)OC(C)(C)C)CC[C@]12C(=O)N(c1cccc(-c3ccc(CO)c(S(C)(=O)=O)c3)c1)c1ccccc12 [Compound 2a-1]
[1]
  mRNA content of ACC: reduced the mRNA content of SREBP-1c, ACC, FAS and SCD-1 in a concentration-dependent manner
  mRNA content of FAS: reduced the mRNA content of SREBP-1c, ACC, FAS and SCD-1 in a concentration-dependent manner
  mRNA content of SCD-1: reduced the mRNA content of SREBP-1c, ACC, FAS and SCD-1 in a concentration-dependent manner
  mRNA content of SREBP-1c: reduced the mRNA content of SREBP-1c, ACC, FAS and SCD-1 in a concentration-dependent manner
[2]
  mRNA content of ACC: significantly reduced
  mRNA content of FAS: significantly reduced
  mRNA content of SCD-1: significantly reduced
  mRNA content of SREBP-1c: significantly reduced
[3]
  IC50: 270 ± 30 nM
[4]
  triglyceride accumulation in HepG2 cells induced by high glucose: significantly reduce
[5]; liver
  triglyceride content in the livers of mice: can reduce the triglyceride content
[5]; serum
  HDL-C/LDL-C level: slightly increased
  HDL-C/TC: Neither fenofibrate nor compound 2a-1 had a significant effect
  increase in HDL-C level induced by Triton WR-1339: significantly inhibit
  increase in LDL-C level induced by Triton WR-1339: significantly inhibit
  increase in TC level induced by Triton WR-1339: significantly inhibit
  increase in TG level induced by Triton WR-1339: significantly inhibit
[6]
  inverse activation of liver X receptors (in words): can inversely activate liver X receptors

## CC(C)[C@@H]1N(C(=O)OC(C)(C)C)CC[C@@]12C(=O)N(c1cccc(-c3ccc(CO)c(S(C)(=O)=O)c3)c1)c1ccccc12 [Compound 2a-2]
[6]
  inverse activation of liver X receptors (in words): can inversely activate liver X receptors

## CC(C)[C@@H]1N(C(=O)OC(C)(C)C)CC[C@@]12C(=O)N(c1cccc(-c3ccc(CO)c(S(C)(=O)=O)c3)c1)c1ccccc12 [Compound 2a]
[6]
  inverse activation of liver X receptors (in words): can inversely activate liver X receptors

## CC(C)[C@@H]1N(C(=O)C(F)(F)F)CC[C@@]12C(=O)N(c1cccc(-c3ccc(CO)c(S(C)(=O)=O)c3)c1)c1ccccc12 [Compound 2b]
[6]
  inverse activation of liver X receptors (in words): can inversely activate liver X receptors

## CC(C)[C@@H]1N(C(=O)CC(C)(C)C)CC[C@@]12C(=O)N(c1cccc(-c3ccc(CO)c(S(C)(=O)=O)c3)c1)c1ccccc12 [Compound 2c]
[6]
  inverse activation of liver X receptors (in words): can inversely activate liver X receptors

## CC(C)[C@@H]1N(C(=O)C(C)(C)C)CC[C@@]12C(=O)N(c1cccc(-c3ccc(CO)c(S(C)(=O)=O)c3)c1)c1ccccc12 [Compound 2d]
[6]
  inverse activation of liver X receptors (in words): can inversely activate liver X receptors

## CC(C)[C@@H]1N(C(=O)OC(C)(C)C)CC[C@@]12C(=O)N(c1cccc(-c3ccc(C(=O)N(C)C)c(Cl)c3)c1)c1ccccc12 [Compound 3a]
[7]
  EC50: 6920 nM
  LXRα % Agonist effect: 53%
[6]
  activation of liver X receptors (in words): can activate liver X receptors

## CC(C)[C@@H]1N(C(=O)C(C)(C)C)CC[C@@]12C(=O)N(c1cccc(-c3ccc(C(=O)N(C)C)c(Cl)c3)c1)c1ccccc12 [Compound 3b]
[7]
  EC50: 3670 nM
  LXRα % Agonist effect: 76%
[8]; [9]
  EC50: 3040 nM
  LXRβ % Agonist effect: 50%
[6]
  activation of liver X receptors (in words): can activate liver X receptors

## CC(C)[C@@H]1N(C(=S)NC(C)(C)C)CC[C@@]12C(=O)N(c1cccc(-c3ccc(C(=O)N(C)C)c(Cl)c3)c1)c1ccccc12 [Compound 3c]
[6]
  activation of liver X receptors (in words): can activate liver X receptors

## CC(C)[C@@H]1N(C(=O)CC(C)(C)C)CC[C@@]12C(=O)N(c1cccc(-c3ccc4ccn(C)c4c3)c1)c1ccccc12 [Compound 4c]
[8]; HEK-293T, 20 h, inverse agonist activity, HEK293T reporter gene, read-out: LXRβ % Inverse agonist effect
  Emax: 64%
[8]; [10]
  IC50: 10100 nM

## O=C(O)Cc1cccc(OCCCN(Cc2cccc(C(F)(F)F)c2Cl)CC(c2ccccc2)c2ccccc2)c1 [GW3965, reference compound]
[7]
  EC50: 360 nM
  LXRα % Agonist effect: 100%
[8]
  LXRβ % Agonist effect: 100%
[8]; [9]
  EC50: 210 nM

## CCOC(=O)c1ccc(CN(Cc2ccc(-c3cccc(S(C)(=O)=O)c3)cc2)S(=O)(=O)c2c(C)cc(C)cc2C)o1 [SR9238, reference compound]
[7]; inverse agonist activity
  IC50: 160 nM
  LXRα % Inverse agonist effect: 93%
[8]; [10]
  IC50: 100 nM
